From patent US20240224953A1 (Barlaa B.V., priority 2021, published 2024) come the findings set out here.

Where two headings read alike, the source gives them in different places.

The subject of assay [1] is whiteleg shrimps. The text has this:
In […] further experiments were done in Gujarat-India on whiteleg shrimps.

For the next assay, the system named is α-amylase gene. Conditions: hepatopancreas, after 56 days, versus control, FIG. 2.
Assay [2] has as its system Tiger shrimps (Penaeus monodon). As to conditions: three ponds, applied after each change of water every 5 days. The method, then: Tiger shrimps (Penaeus monodon), also named giant tiger prawn, asian tiger prawn or black tiger shrimp, is one of the most popular cultured shrimp species in the world.
A small scale trial was carried out in 2019 in Chittagong-Bangladesh in three ponds of +2.5 ha.

For assay [3], the system named is Pacific Whiteleg shrimp (Litopenaeus vannamei).
Description: An 8-week growth trial study on Pacific Whiteleg shrimp (Litopenaeus vannamei) (1.0 g/shrimp) in duplicate was conducted in a 3,200 m2 earthen pond (100,000 shrimps per 1,600 m2) at the GAP certified private shrimp farm, Nakhon Pathom province, Thailand. […] The pond size was 2 Rai (1 Rai is 1,600 m^2). Stocking density is 100,000 shrimps/1 Rai.
Shrimp were fed by automatic feeder four times a day according to the farming standard. […] The bespoke shrimp feed specification was Crude Protein 38%, Crude Fat 7%, and diet pellet sizes of 1.5 mm; 2.0 mm; 2.5 mm that were assigned across the trial period to optimise maximum intake.
Assay [4] deals with whiteleg shrimps. This is another data set of the same source.
The test system of the next assay is whiteleg shrimp. The source says: Trials are done in Northern part, Central part and Southern part in Vietnam, 2020-2021.
The test system of the next assay is trypsin gene. Conditions: hepatopancreas, after 56 days, versus control, FIG. 2. The method, then: At the end of the grow-out period, shrimp were sampled for the growth and feed utilisation metrics. Water quality parameters were measured three times daily. At the end of the trial, shrimps were assessed for the growth performance as described below. Shrimp from each treatment group were examined and the hepato-pancreas removed carefully from 10 individual animals and processed as described below.
For RNA extraction, hepatopancreases were extracted by using trizol reagent (Invitrogen, USA). Briefly, 1 ml of trizol reagent were added into 50-100 mg of tissue samples. then, the samples were homogenized at 3,500 rpm for 1 min by using Micro Smash MS-100R (TOMY, Japan). After incubated sample at RT for 5 min, 200 μl of chloroform were added and mixed vigorous. The samples were centrifuged at 12,000 rpm at 4° C. for 15 min. after collected supernatant into new 1.5 ml tube, 1 volume of isopropanol were added and incubated at −20° C. for 2 h or O/N. Next, RNA pellets were collected by centrifuged at 12,000 rpm at 4° C. for 15 min. then, the pellets were washed with 500 μl of 75% ethanol and dried pellet at 65° C. Lastly, 30 μl of RNase free water was added for dissolved RNA pellet. RNA concentration was measured by using nanodrop spectrophotometer (Thermo Fisher Scientific, USA).

In another assay the test system is Pangasius hypophthalmus. Kind of assay: Experiment 7C: pond trial on Pangasius in Bangladesh. The class given is in vivo. Conditions: overall results of the 8 ponds. The source says: Pangas belonging to the genus of medium-large catfishes, is a relatively new and fast-growing fish species that has great potential for production and export growth in Bangladesh. Polyculture of pangasius (P. hypophthalmus) with carps is the existing culture practice along with monoculture being practiced by many households in Bangladesh.
Trials have been done in 2019 in Mymensingh region on 4 ponds with an average of 1,4 ha and an average depth of 1.5 m in the dry season and 2 m. in the rainy season (May to November). For feeding standard commercial pelleted feeds were used.

Assay [5] deals with whiteleg shrimps (Litopenaeus vannamei). The method, then: Water quality parameters, including salinity, dissolved oxygen, pH and total ammonia nitrogen (TAN) were monitored regularly in both control and treated ponds. The growth rate of the shrimps was monitored regularly. Total number was counted and mean body weight of shrimp was measured. Based on recording the weight of shrimp and counting the number of shrimps, weight gain, feed conversion ratio (FCR) and survival were calculated.

Assay [6] concerns whiteleg shrimps. Conditions: applied once or twice a day, 6 ponds.
The mark [7] stands for this setting: all testing locations in Vietnam, 2020-2021.

Description for α-amylase gene: For RNA extraction, hepatopancreases were extracted by using trizol reagent (Invitrogen, USA). Briefly, 1 ml of trizol reagent were added into 50-100 mg of tissue samples. then, the samples were homogenized at 3,500 rpm for 1 min by using Micro Smash MS-100R (TOMY, Japan). After incubated sample at RT for 5 min, 200 μl of chloroform were added and mixed vigorous. The samples were centrifuged at 12,000 rpm at 4° C. for 15 min. after collected supernatant into new 1.5 ml tube, 1 volume of isopropanol were added and incubated at −20° C. for 2 h or O/N. Next, RNA pellets were collected by centrifuged at 12,000 rpm at 4° C. for 15 min. then, the pellets were washed with 500 μl of 75% ethanol and dried pellet at 65° C. Lastly, 30 μl of RNase free water was added for dissolved RNA pellet. RNA concentration was measured by using nanodrop spectrophotometer (Thermo Fisher Scientific, USA). […]
Real-time PCR was used to detected growth genes in shrimp.
Reaction mixture for real-time PCR was composed of 1 μl of 100 cDNA, 5 μl of 2× qPCRBIO SyGreen mix, forward and reverse primer at final concentration 0.2 μM and adjusted volume up to 10 μl by nuclease free water. […] The relative fold gene expression level was calculated by using the formula below: […]

Turning to “silicic acid [bioavailable silicic acid compound]”, the “average yield increase of shrimps” value in the assay with whiteleg shrimps [1] (8 ponds, 1.5 liters of 2.5% product every 15 days, compared to control) is recorded as 18.3%. For the same substance, the “food conversion rate (FCR)” value in the assay with whiteleg shrimps [1] (average of treated ponds (control ponds 1.52)) stood at 1.45. Besides, in the assay on α-amylase gene, the “α-amylase gene expression relative to housekeeping gene” value is recorded as “down regulation”. Moreover, the “overall yield increase (compared to control)” value in assay [2] is given as 18.4%. Moreover, the “average (mean) weight of shrimp at end of trial” value in assay [3] (8-weeks growth trial, FIG. 1 (control 9.48)) is on record as 12.49 g. In assay [3] (8 weeks, with silicic acid), the “Apparent net protein utilization (%)” value was 36.4 ± 1.4 ^A %, the “Average daily gain” value is on record as 0.12 ± 0.02 g/day, the Feed conversion ratio was 1.18 ± 0.05 ^A and the “Final weight (g/shrimp)” value stood at 12.49 ± 2.46 g/shrimp. Further, in assay [3] (8 weeks, with silicic acid), the “Specific growth rate (%/day)” value was 3.21 ± 0.20 ^A %/day, the “Survival rate (%)” value was 69.8 ± 4.5 ^A % and the “Total biomass (kg of harvested shrimp)” value is recorded as 1,047 ± 208.25 ^A kg. In addition, the “shrimp performance under pond rearing conditions” value in assay [3] (exposed for 8 weeks) is “significantly better”. Moreover, in the assay on whiteleg shrimps [4] (4 ponds, application every 3 days, brackish water), the “average yield increase of shrimps” value is 24.27%. Also, in the assay with whiteleg shrimps [4] (average of treated ponds (control ponds 1.5)), the “feed conversion rate (FCR)” value was found to be 1.37. The “environment, growth, survival, and energy efficiency of shrimp production” value in the assay with whiteleg shrimp (Central Vietnam) is on record as “remarkably good results”. In the assay with whiteleg shrimp (setting [7]), the “higher yields (average)” value was 18.7% and the “larger shrimps (average)” value is given as 14%. For the same substance, the “trypsin gene expression relative to housekeeping gene” value in the assay with trypsin gene was “down regulation”. Besides, in the assay on Pangasius hypophthalmus (both treatments pooled), the “increase of overall yield” value came to 16.6%. In the assay on Pangasius hypophthalmus (both treatments pooled (from 11.400 kg/ha/year)), this substance came in with an overall yield of 13.300 kg/ha/year. Moreover, the “average weight gain of the shrimps compared to control pond” value in assay [5] (first experiments, 2017, brackish ponds, Gujarat) came to 26%. Further, the “increase (average weight gain) compared to control” value in [5] (second trial) was 17.5%. Moreover, in the assay on whiteleg shrimps [6], the “overall increase of the yield” value is 19%.
